Results on 16 molecules are retold here after patent publication US11306100B2, “Spirooxindole compounds as GSK3B inhibitors and process for preparation thereof” (COUNCIL OF SCIENTIFIC & INDUSTRIAL RESEARCH, priority 2017, dated 2022).

Data set [1] concerns PANC-1 cells. Briefly: Cell viability, Sulforhodamine B assay. The class given is cell-based. Here is the method: Cell viability was measured using Sulforhodamine B assay. The cytotoxic effect of the compounds with GSK3β inhibitory potential was tested against PANC-1 cells. Initially, the PANC-1 cells were seeded in flat bottom 96-well plate (5000 cells/100 μL) in complete medium and cultured for 18 hrs under standard conditions. After 18 h the cells were treated with either the different concentration of compounds, standard drugs or DMSO as solvent control. The final DMSO concentration to cells was maintained <2% in all cytotoxic assays. Each compound was tested in triplicate and the cytotoxicity was determined as the average of that triplicate. Further, the plates were incubated for another 48 h in an incubator maintained at 37° C. with a constant supply of 5% CO2. The cells were fixed using 10% TCA and incubated for 1 h at 4° C. Then the plates were rinsed carefully with MQ water and air dried at room temperature. To all the wells of MTP plate 0.057% SRB solution was added and kept for approximately 30 min before it was rinsed off using 1% acetic acid. The plates were then air dried and 100 μL of 10 mM tris base was added to each well to solubilize the SRB before absorbance was measured at 510 nm. The measure of absorbance is directly proportional to cell growth and is thus used to calculate % reduction in the rate of cell proliferation according to control DMSO treated cells. All experiments were performed in triplicates; mean % age proliferation values with ±SD were plotted here.

A further data set addresses recombinant GSK3β (Homo sapiens, UniProt P49841). Briefly: ADP-Glo kinase assay of GSK3β activity. The class given is biochemical. The note with it: for IC50: GSK3β kinase activity. Here is the method: Activity of recombinant GSK3β is measured using ADP-Glo Kinase assay according to supplier's standard protocol with minor modifications in 384 well format. Briefly, kinase reaction mixture was prepared by adding […] of recombinant enzyme, 2 μM ATP, 1 μg of enzyme substrate along with test compound or DMSO to a final volume of 5 μl. The kinase reaction was performed by incubating the mixture at room temperature for 17 mins. To correct reaction back ground a substrate blank reaction was also performed. ADP glow reagent (equal volume to reaction mixture) was added to the reaction mixture to deplete any unused ATP added to the kinase reaction and incubated at further 40 min at 27° C. Then 10 μl of kinase detection reagent was added followed by incubation for 30 min at 27° C. to convert ADP to ATP and introduce luciferase to measure kinase activity. The luminescence was measured using luminometer (Perkin Elmer) which is directly proportional to ADP generated in kinase reaction. To determine the amount of ADP produced in kinase reaction and calculate specific activity of the enzyme, a conversion curve is prepared by serial dilution of ADP and ATP mixture. Specific activity of the GSK3β was calculated using the following equation. (ADP(kinase reaction)−ADP(substrate blank)) in mmol)/(Reaction time in min)×(GSK3β in mg).

Data set [2] relates to cellular GSK3β signalling in PANC-1 cells. As to the kind of experiment: Western blot of GSK3β signalling and NFkB target proteins in PANC-1 cells. The class given is cell-based. Here is the method:
The compounds inhibiting GSK3β activity in-vitro added to PANC-1 cells to determine their potential against intracellular GSK3β signalling pathways in cancer cells. Briefly, PANC-1 cells were plated in 60 mm plates (100,000 cells/4 mL) and cultured in the standard DMEM medium containing 10% serum. After culturing for 18 hrs, different concentrations of test compounds or standard controls prepared in DMSO were added to culture media to achieve final concentration 0 to 100 μM of compound to cells. Cells were further continued to grow for 48 h with constant supply of 5% CO2 in humid incubator. The time course (0 to 48 h) experiment was carried out simultaneously with fixed concentration of compound showing 50% growth inhibition. At the end of the experiments, all cells were scraped directly in cold PBS and washed for 3 times before lysis directly in 2D lysis buffer (8M urea, 2M thiourea, 4% CHAPS, 4 mM tris base and 65 mM DTT) for isolation of proteins to perform western blots. The protein concentration was determined by modified Bradford assay.
To perform western blot, protein extracts were separated on 12% SDS-PAGE and electrophoretically (1 mA/cm^2 membrane for 1 hr) transferred onto the nitrocellulose membrane by semi-dry method. After protein transfer, membrane was stained with Ponceau S solution (0.2% Ponceau S in 3% Trichloroacetic acid) for 2 min to see efficiency of electrophoretic transfer. The membrane was destained in ddH2O to visualize the protein bands and further destained with TBST (20 mM Tris, 138 mM NaCl, pH 7.6 and 0.1% Tween 20) for blotting. To avoid non-specific detection of target proteins, blotted membranes were blocked with BSA (3% BSA in TBST solution). All antibodies against specific protein targets of interest were purchased from Cell Signaling Technology, USA if not mentioned specifically. Then the blots were incubated with antibodies prepared in blocking buffer (1:1000 Antibody to blocking buffer dilution) for 18 h with constant shaking at 4° C. Three washing steps in PBS each for 5 mins removed the excess and non-specific antibodies. For visualization, blots were incubated with secondary antibody conjugated to either horseradish peroxidase or alkaline phosphatase [anti-(mouse IgG) or anti-(rabbit IgG), diluted 1:5000 in TBST] for 1 h at room temperature. After three washes in PBS, the reaction was developed either by addition of LumiGLO substrate (Cell Signaling Technology) followed by capturing on X-ray film or addition of chromogenic NBT (nitro-blue tetrazolium chloride) and BCIP (5-bromo-4-chloro-3′-indolyphosphate p-toluidine salt) substrate for alkaline phosphatase developing purple colored bands. The blots were scanned for densitometry performed using Image-J program.

For data set [3], the system named is PANC-1 cells. As to the kind of experiment: Colony formation (soft agar, clonogenic) assay. The class given is cell-based. As to conditions: TRAIL alone, 10 ηg/mL. Here is the method: To determine the efficiency of GSK3β inhibitors in combination with the TRIAL on anchorage independent growth of PANC-1 cells soft agar assay were performed. The base agar (0.5%) was prepared by mixing equal amounts of 1% agar with 2× media (20% FBS and 2× antibiotics) filled in 6-well plate. Simultaneously, PANC-1 cells (14000/well) mixed with 2× media containing different concentrations of identified compounds alone or in combination with TRAIL mixed with 0.7% of sterile agar to achieve final concentration of […] top agar. The cell suspension was spread on solidified base agar. Then the plates were incubated in CO2 incubator for 14 days and the cells were fed with fresh media containing respective concentration and combination of TRIAL every 3 days. Upon termination (after 14 days of incubation) plates were stained with 0.005% of crystal violet for 1 h and excess stain was removed by washing with MQ. The number of blue colonies were counted using olympus Xi71 microscope.

Chain of recombinant GSK3β (P49841 whole entry): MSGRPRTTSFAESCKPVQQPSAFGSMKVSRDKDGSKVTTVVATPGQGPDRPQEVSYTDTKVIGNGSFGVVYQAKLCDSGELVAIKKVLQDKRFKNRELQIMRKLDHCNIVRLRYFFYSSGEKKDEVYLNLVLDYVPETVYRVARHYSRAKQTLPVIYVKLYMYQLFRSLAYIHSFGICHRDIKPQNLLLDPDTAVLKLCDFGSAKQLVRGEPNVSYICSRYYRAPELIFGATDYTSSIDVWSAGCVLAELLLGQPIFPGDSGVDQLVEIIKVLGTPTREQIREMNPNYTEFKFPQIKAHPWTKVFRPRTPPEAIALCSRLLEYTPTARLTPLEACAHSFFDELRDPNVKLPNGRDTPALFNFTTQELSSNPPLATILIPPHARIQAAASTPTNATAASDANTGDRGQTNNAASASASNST

`O=C1Nc2ccccc2C12COC(CI)C2` (stereo not shown) [6a, 5-(Iodomethyl)-4,5-dihydro-2H-spiro[furan-3,3′-indolin]-2′-one]: the melting point was 170.6 °C.
Consider `O=C1Nc2ccccc2C12COC(Cn1cc(-c3ccccc3)nn1)C2` (stereo not shown) [AB-C, 5-((4-Phenyl-1H-1,2,3-triazol-1-yl)methyl)-4,5-dihydro-2H-spiro[furan-3,3′-indolin]-2′-one], for which the melting point was 175 to 177 °C. Also, the “effectiveness against cell growth” value with PANC-1 cells [1] (FIG. 3B, low concentration of TRAIL (1 ηg/mL)) is “not effective compared to remaining compounds”. For the same molecule, the “effectiveness against cell growth / sensitisation to TRAIL” value with PANC-1 cells [1] (in combination with TRAIL (10 ηg/mL), FIG. 3A) is listed as “less effective compared to other molecules”. In addition, on recombinant GSK3β, the “inhibition of GSK3β in in-vitro kinase assays” value is “potent inhibition”. The IC50 at recombinant GSK3β (2 μM ATP) worked out at 3.59 ± 0.98 µM. Also, in data set [2] (PANC-1 cells treated with compound), the “phosphorylation of GSK3β” value is reported as “significantly decreased”. Further, the β-catenin level result in data set [2] (PANC-1 cells versus control (DMSO)) is “accumulation of β-catenin”.
With `CC(C)(O)c1cn(CC2CC3(CO2)C(=O)Nc2ccccc23)nn1` (stereo not shown) [AB-E, 5-((4-(2-Hydroxypropan-2-yl)-1H-1,2,3-triazol-1-yl)methyl)-4,5-dihydro-2H-spiro[furan-3,3′-indolin]-2′-one], at recombinant GSK3β (2 μM ATP), the 50% inhibitory concentration (IC50) came to 5.44 ± 1.49 µM.
Take `CCOC(=O)c1cn(CC2CC3(CO2)C(=O)Nc2ccccc23)nn1` (stereo not shown) [AB-F, Ethyl-1-((2′-oxo-4,5-dihydro-2H-spiro[furan-3,3′-indoline]-5-yl)methyl)-1H-1,2,3-triazole-4-carboxylate]: the melting point was 133 to 134 °C. Moreover, the IC50 at recombinant GSK3β (2 μM ATP) is 4.68 ± 0.6 µM.
As for `O=C1Nc2ccccc2C12COC(CN1CCOCC1)C2` (stereo not shown) [AB-K, 5-(Morpholinomethyl)-4,5-dihydro-2H-spiro [furan-3, 3′-indolin]-2′-one], the melting point is 126 to 128 °C. For the same molecule, the IC50 at recombinant GSK3β (2 μM ATP) stood at 4.91 ± 0.56 µM.
In the case of `O=C1Nc2ccccc2C12COC(CN1CCSCC1)C2` (stereo not shown) [AB-L, 5-(Thiomorpholinomethyl)-4,5-dihydro-2H-spiro[furan-3,3′-indolin]-2′-one], the IC50 on recombinant GSK3β (2 μM ATP) was 4.06 ± 1.67 µM.
In the case of `COC(=O)c1ccc(-c2cc(Cl)ccc2OCc2cn(CC3CC4(CO3)C(=O)Nc3ccccc34)nn2)nc1C` (stereo not shown) [AB-N, Methyl-6-(5-chloro-2-((1-((2′-oxo-4,5-dihydro-2H-spiro[furan-3,3′-indoline]-5-yl)methyl)-1H-1,2,3-triazol-4-yl)methoxy)phenyl)-2-methylnicotinate], the melting point was 120 to 122 °C.
As for `O=Cc1ccccc1OCc1cn(CC2CC3(CO2)C(=O)Nc2ccccc23)nn1` (stereo not shown) [AB-P, 2-((1-((2′-Oxo-4,5-dihydro-2H-spiro[furan-3,3′-indoline]-5-yl)methyl)-1H-1,2,3-triazol-4-yl)methoxy)benzaldehyde], the IC50 at recombinant GSK3β (2 μM ATP) came to 4.93 ± 0.53 µM.
Take `O=C1Nc2ccccc2C12COC(CN1CCN(Cc3ccccc3)CC1)C2` (stereo not shown) [AB-R, 5-((4-Benzylpiperazin-1-yl)methyl)-4,5-dihydro-2H-spiro[furan-3,3′-indolin]-2′-one]: the melting point is 141 to 143 °C.
On to `CCOC(=O)c1ccc(-c2cc(Cl)cc(Cl)c2OCc2cn(CC3CC4(CO3)C(=O)Nc3ccccc34)nn2)nc1C` (stereo not shown) [AB-W, Ethyl6-(3,5-dichloro-2-((1-((2′-oxo-4,5-dihydro-2H-spiro[furan-3,3′-indoline]-5-yl)methyl)-1H-1,2,3-triazol-4-yl)methoxy)phenyl)-2-methylnicotinate], for which the melting point was in the range of 132 to 135 °C.
Molecule `O=C1Nc2ccccc2C12COC(CN1CCN(c3ccccc3)CC1)C2` (stereo not shown) [AB-X, 5-((4-Phenylpiperazin-1-yl)methyl)-4,5-dihydro-2H-spiro[furan-3,3′-indolin]-2′-one] returned a melting point of 130 to 132 °C.
As to `CC(=O)Nc1ccccc1` [Acetanilide, reference compound], at recombinant GSK3β (2 μM ATP), the IC50 was 6.53 ± 0.52 µM.
With `[Cl-].[Li+]` [Licl, LiCl, reference compound], at recombinant GSK3β, the IC50 was found to be 3990 µM.
Take `O=C1Cc2ccccc2N1` [Oxindole]: at recombinant GSK3β (2 μM ATP), the IC50 was 6.46 ± 0.63 µM.
On to `Cc1ccc([N+](=O)[O-])cc1S(=O)(=O)N(C)/N=C/c1cnc2ccc(Br)cn12` [PIK-75, reference compound], for which, at recombinant GSK3β, the half-inhibitory concentration (IC50) is 0.0176 µM.

B1: TRAIL: Tumor necrosis factor-related apoptosis-inducing ligand (TRAIL) (protein, UniProt P50591 1-281, looked up)
Tumor necrosis factor ligand …: MAMMEVQGGPSLGQTCVLIVIFTVLLQSLCVAVTYVYFTNELKQMQDKYSKSGIACFLKEDDSYWDPNDEESMNSPCWQVKWQLRQLVRKMILRTSEETISTVQEKQQNISPLVRERGPQRVAAHITGTRGRSNTLSSPNSKNEKALGRKINSWESSRSGHSFLSNLHLRNGELVIHEKGFYYIYSQTYFRFQEEIKENTKNDKQMVQYIYKYTSYPDPILLMKSARNSCWSKDAEYGLYSIYQGGIFELKENDRIFVSVTNEHLIDMDHEASFFGAFLVG
As for B1, the “cell death in PANC-1 cells” value in the data set on PANC-1 cells [1] (TRAIL alone (10 ηg/ml)) is given as “did not cause any significant cell death”. In addition, in the data set with PANC-1 cells [3], the “inhibition of colony formation” value is listed as “did not show effective inhibition on colony formation”.
